Test results published in PubChem BioAssay AID1963846 (Molecular Pharmacology Branch, DTP, NCI, 2024).
pIC50: −log10 of the molar value.

System: 454973-116-R2-J3-PDC complex spheroid viability
Assay: Anticancer human tumor 454973-116-R2-J3-PDC patient-derived pancreatic carcinoma cell line growth inhibition [POLQ]
Details: for pIC50: curve of first compound; for viability, T/C: stronger effect = lower value
Summary of the method: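 Growth inhibition in 3D: complex spheroids (tumor PDC, HUVEC, MSC) treated with POLQ inhibitor combinations; where Cmax unknown, highest tested concentration 10 microM, except SN-38 at 1 microM.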
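Note: spheroids exposed to drugs for seven days before measurement.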
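Throughout, for viability, T/C: percent viability relative to DMSO vehicle control wells taken as 100%.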

Compound: CC(=O)O[C@H]1C(=O)[C@@]2(C)[C@H]([C@H](OC(=O)c3ccccc3)[C@]3(O)C[C@H](OC(=O)[C@H](O)[C@@H](NC(=O)c4ccccc4)c4ccccc4)C(C)=C1C3(C)C)[C@]1(OC(C)=O)CO[C@@H]1C[C@@H]2O + Cc1cccc(N(C)C(=O)C2C(O)CCN2c2nc(C)cc(C(F)(F)F)c2C#N)c1
- pIC50 (second compound 0.0316 µM): > 8.02
- pIC50 (second compound 0.1 µM): > 8.02
- pIC50 (second compound 0.316 µM): > 8.02
- pIC50 (second compound 1 µM): > 8.02
- pIC50 (second compound 3.16 µM): > 8.02
- pIC50 (second compound 10 µM): > 8.02
- viability, T/C (second compound 0.0316 µM, first compound 0.00949 µM): 5.9%
- viability, T/C (second compound 0.0316 µM, first compound 0.03 µM): 5.78%
- viability, T/C (second compound 0.0316 µM, first compound 0.0949 µM): 4.79%
- viability, T/C (second compound 0.0316 µM, first compound 0.3 µM): 5.44%
- viability, T/C (second compound 0.0316 µM, first compound 0.949 µM): 6.64%
- viability, T/C (second compound 0.0316 µM, first compound 3 µM): 4.88%
- viability, T/C (second compound 0.1 µM, first compound 0.00949 µM): 7.63%
- viability, T/C (second compound 0.1 µM, first compound 0.03 µM): 5.67%
- viability, T/C (second compound 0.1 µM, first compound 0.0949 µM): 4.39%
- viability, T/C (second compound 0.1 µM, first compound 0.3 µM): 5.55%
- viability, T/C (second compound 0.1 µM, first compound 0.949 µM): 5.21%
- viability, T/C (second compound 0.1 µM, first compound 3 µM): 5.24%
- viability, T/C (second compound 0.316 µM, first compound 0.00949 µM): 7.72%
- viability, T/C (second compound 0.316 µM, first compound 0.03 µM): 6.78%
- viability, T/C (second compound 0.316 µM, first compound 0.0949 µM): 5.34%
- viability, T/C (second compound 0.316 µM, first compound 0.3 µM): 4.54%
- viability, T/C (second compound 0.316 µM, first compound 0.949 µM): 4.69%
- viability, T/C (second compound 0.316 µM, first compound 3 µM): 5.5%
- viability, T/C (second compound 1 µM, first compound 0.00949 µM): 7.85%
- viability, T/C (second compound 1 µM, first compound 0.03 µM): 5.01%
- viability, T/C (second compound 1 µM, first compound 0.0949 µM): 5.19%
- viability, T/C (second compound 1 µM, first compound 0.3 µM): 5.01%
- viability, T/C (second compound 1 µM, first compound 0.949 µM): 5.7%
- viability, T/C (second compound 1 µM, first compound 3 µM): 4.36%
- viability, T/C (second compound 3.16 µM, first compound 0.00949 µM): 6.74%
- viability, T/C (second compound 3.16 µM, first compound 0.03 µM): 5.6%
- viability, T/C (second compound 3.16 µM, first compound 0.0949 µM): 5.28%
- viability, T/C (second compound 3.16 µM, first compound 0.3 µM): 4.99%
- viability, T/C (second compound 3.16 µM, first compound 0.949 µM): 5.45%
- viability, T/C (second compound 3.16 µM, first compound 3 µM): 4.91%
- viability, T/C (second compound 10 µM, first compound 0.00949 µM): 6.83%
- viability, T/C (second compound 10 µM, first compound 0.03 µM): 5.22%
- viability, T/C (second compound 10 µM, first compound 0.0949 µM): 5.42%
- viability, T/C (second compound 10 µM, first compound 0.3 µM): 5.06%
- viability, T/C (second compound 10 µM, first compound 0.949 µM): 4.84%
- viability, T/C (second compound 10 µM, first compound 3 µM): 5.41%

Compound: CC[C@@]1(O)C(=O)OCc2c1cc1n(c2=O)Cc2cc3c(CN(C)C)c(O)ccc3nc2-1 + Cc1cccc(N(C)C(=O)C2C(O)CCN2c2nc(C)cc(C(F)(F)F)c2C#N)c1
- pIC50 (second compound 0.0316 µM): 7.73
- pIC50 (second compound 0.1 µM): 7.72
- pIC50 (second compound 0.316 µM): 7.74
- pIC50 (second compound 1 µM): 7.73
- pIC50 (second compound 3.16 µM): 7.77
- pIC50 (second compound 10 µM): 7.72
- viability, T/C (second compound 0.0316 µM, first compound 0.000316 µM): 92.2%
- viability, T/C (second compound 0.0316 µM, first compound 0.001 µM): 102%
- viability, T/C (second compound 0.0316 µM, first compound 0.00316 µM): 90.5%
- viability, T/C (second compound 0.0316 µM, first compound 0.01 µM): 85.3%
- viability, T/C (second compound 0.0316 µM, first compound 0.0316 µM): 20.4%
- viability, T/C (second compound 0.0316 µM, first compound 0.1 µM): 16.1%
- viability, T/C (second compound 0.1 µM, first compound 0.000316 µM): 104%
- viability, T/C (second compound 0.1 µM, first compound 0.001 µM): 104%
- viability, T/C (second compound 0.1 µM, first compound 0.00316 µM): 99.8%
- viability, T/C (second compound 0.1 µM, first compound 0.01 µM): 88.6%
- viability, T/C (second compound 0.1 µM, first compound 0.0316 µM): 20.2%
- viability, T/C (second compound 0.1 µM, first compound 0.1 µM): 19.7%
- viability, T/C (second compound 0.316 µM, first compound 0.000316 µM): 98.3%
- viability, T/C (second compound 0.316 µM, first compound 0.001 µM): 118%
- viability, T/C (second compound 0.316 µM, first compound 0.00316 µM): 113%
- viability, T/C (second compound 0.316 µM, first compound 0.01 µM): 83.9%
- viability, T/C (second compound 0.316 µM, first compound 0.0316 µM): 18.4%
- viability, T/C (second compound 0.316 µM, first compound 0.1 µM): 16.5%
- viability, T/C (second compound 1 µM, first compound 0.000316 µM): 103%
- viability, T/C (second compound 1 µM, first compound 0.001 µM): 106%
- viability, T/C (second compound 1 µM, first compound 0.00316 µM): 97.1%
- viability, T/C (second compound 1 µM, first compound 0.01 µM): 84.9%
- viability, T/C (second compound 1 µM, first compound 0.0316 µM): 19.6%
- viability, T/C (second compound 1 µM, first compound 0.1 µM): 19.8%
- viability, T/C (second compound 3.16 µM, first compound 0.000316 µM): 116%
- viability, T/C (second compound 3.16 µM, first compound 0.001 µM): 106%
- viability, T/C (second compound 3.16 µM, first compound 0.00316 µM): 105%
- viability, T/C (second compound 3.16 µM, first compound 0.01 µM): 76%
- viability, T/C (second compound 3.16 µM, first compound 0.0316 µM): 16.8%
- viability, T/C (second compound 3.16 µM, first compound 0.1 µM): 19.8%
- viability, T/C (second compound 10 µM, first compound 0.000316 µM): 107%
- viability, T/C (second compound 10 µM, first compound 0.001 µM): 96.6%
- viability, T/C (second compound 10 µM, first compound 0.00316 µM): 97.3%
- viability, T/C (second compound 10 µM, first compound 0.01 µM): 85.6%
- viability, T/C (second compound 10 µM, first compound 0.0316 µM): 21.3%
- viability, T/C (second compound 10 µM, first compound 0.1 µM): 22.6%
